Biological target: T1, OGA (Homo sapiens, UniProt O60502)
T1 construct: HEK293 cells inducible for P301L mutant human Tau (isoform 2N4R) were established at Janssen; endogenous in cells; host or cells: HEK293 cells inducible for P301L mutant human Tau (2N4R)
T1 sequence (O60502 1-916): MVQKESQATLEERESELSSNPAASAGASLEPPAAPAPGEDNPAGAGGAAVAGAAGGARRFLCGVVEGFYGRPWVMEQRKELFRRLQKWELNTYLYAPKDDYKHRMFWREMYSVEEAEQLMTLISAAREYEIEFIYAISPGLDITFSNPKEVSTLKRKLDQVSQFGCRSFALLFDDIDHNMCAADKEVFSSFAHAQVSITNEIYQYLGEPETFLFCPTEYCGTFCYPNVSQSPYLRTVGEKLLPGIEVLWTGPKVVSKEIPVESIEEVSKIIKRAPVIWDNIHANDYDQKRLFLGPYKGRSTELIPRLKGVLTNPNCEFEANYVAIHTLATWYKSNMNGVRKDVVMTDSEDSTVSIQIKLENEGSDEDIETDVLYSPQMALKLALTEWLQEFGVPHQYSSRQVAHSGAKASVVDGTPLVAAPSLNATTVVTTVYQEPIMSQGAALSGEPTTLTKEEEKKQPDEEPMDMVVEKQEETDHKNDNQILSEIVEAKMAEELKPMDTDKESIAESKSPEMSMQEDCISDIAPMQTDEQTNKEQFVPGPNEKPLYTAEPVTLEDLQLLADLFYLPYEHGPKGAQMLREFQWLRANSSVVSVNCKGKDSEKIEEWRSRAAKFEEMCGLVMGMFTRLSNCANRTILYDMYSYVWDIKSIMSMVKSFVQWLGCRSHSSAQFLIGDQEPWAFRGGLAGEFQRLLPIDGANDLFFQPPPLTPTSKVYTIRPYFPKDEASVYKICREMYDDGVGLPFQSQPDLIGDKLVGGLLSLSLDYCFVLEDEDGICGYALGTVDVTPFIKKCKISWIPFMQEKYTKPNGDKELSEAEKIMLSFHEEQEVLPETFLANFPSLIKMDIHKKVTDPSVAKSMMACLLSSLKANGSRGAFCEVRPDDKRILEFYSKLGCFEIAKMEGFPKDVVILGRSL
Assay: OGA cellular assay (ICC detection of O-GlcNAcylated proteins in HEK293 cells inducible for P301L mutant human Tau)
Format: cell-based
How it was run: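 HEK293 cells inducible for P301L Tau (2N4R), seeded in low-glucose medium, treated with compound for 6 h at 0.2% DMSO. O-GlcNAc immunostained with CTD110.6 after PFA fixation; 488 nm intensity imaged, Hoechst nuclei counted for toxicity. IC50 by non-linear regression, 200 uM Thiamet G as maximum.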

Emax (HEK293, HEK293 cells inducible for P301L mutant human Tau, maximum = Thiamet G 200 uM): 79% | EC50 (HEK293 cells inducible for P301L mutant human Tau, 6 hours incubation, read-out: Cellular hOGA, pEC50 (converted)): 63.1 nM
SMILES: Cc1cc(C2CCCN(C(C)c3ccc4sc(C)nc4n3)C2)cc(C)n1 (racemic) [Compound 39]
